Several values for one entry are separate records, joined by “and”; a condition that tells them apart may be missing. Identical values can stand only once.
Columns and labels:
Assay in all cases: NIMH PDSP binding assay
Conditions in all cases: primary screening, mean of N = 4 determinations
[1] = biological target: Alpha1A (Homo sapiens, UniProt P35348)
Text: (§1) To determine if optovin's mechanism of action could be predicted via behavioral profiling^30,32, optovin's behavioral profile was compared to the behavioral profiles of 700 annotated neuroactive compounds tested in triplicate. These compounds include ligands targeting the adrenergic, serotonergic, histaminergic, dopaminergic, cholinergic and glutamatergic pathways. […] To gain insight into optovin's mechanism of action, optovin and two active optovin analogs were profiled using the National Institutes of Mental Health Psychoactive Drug Screening Program (NIMH PDSP) to determine their activities against a panel of human and rodent CNS receptors, channels and transporters.
(§2) Activity determinations were generously provided by the National Institute of Mental Health's Psychoactive Drug Screening Program, Contract # HHSN-271-2008-00025-C(NIMH PDSP). Complete assay details are found on-line at: http://pdsp.med.unc.edu/UNC-CH %20Protocol %20Book.pdf

[2] = biological target: T1, DAT (Homo sapiens, UniProt Q01959)
T1 construct: NIMH PDSP
Text: as §1, §2

[3] = biological target: 5-HT2A (Homo sapiens, UniProt P28223)
Text: as §1, §2

[4] = biological target: A2B2 (Rattus norvegicus, UniProt P12389+P12390)
Text: as §1, §2

[5] = biological target: 5-HT1A (Homo sapiens, UniProt P08908)
Text: as §1, §2

[6] = biological target: 5-HT3 (Homo sapiens, UniProt P46098)
Text: as §1, §2

[7] = biological target: T2, MOR (Homo sapiens, UniProt P35372)
T2 construct: NIMH PDSP
Text: as §1, §2

[8] = biological target: Alpha1B (Homo sapiens, UniProt P35368)
Text: as §1, §2

[9] = biological target: T3, H2 (Homo sapiens, UniProt P25021)
T3 construct: NIMH PDSP
Text: as §1, §2

[10] = biological target: T4, M5 (Homo sapiens, UniProt P08912)
T4 construct: NIMH PDSP
Text: as §1, §2

[11] = biological target: A4B4 (Rattus norvegicus, UniProt P09483+P12392)
Chain of A4B4 (P09483 31-630): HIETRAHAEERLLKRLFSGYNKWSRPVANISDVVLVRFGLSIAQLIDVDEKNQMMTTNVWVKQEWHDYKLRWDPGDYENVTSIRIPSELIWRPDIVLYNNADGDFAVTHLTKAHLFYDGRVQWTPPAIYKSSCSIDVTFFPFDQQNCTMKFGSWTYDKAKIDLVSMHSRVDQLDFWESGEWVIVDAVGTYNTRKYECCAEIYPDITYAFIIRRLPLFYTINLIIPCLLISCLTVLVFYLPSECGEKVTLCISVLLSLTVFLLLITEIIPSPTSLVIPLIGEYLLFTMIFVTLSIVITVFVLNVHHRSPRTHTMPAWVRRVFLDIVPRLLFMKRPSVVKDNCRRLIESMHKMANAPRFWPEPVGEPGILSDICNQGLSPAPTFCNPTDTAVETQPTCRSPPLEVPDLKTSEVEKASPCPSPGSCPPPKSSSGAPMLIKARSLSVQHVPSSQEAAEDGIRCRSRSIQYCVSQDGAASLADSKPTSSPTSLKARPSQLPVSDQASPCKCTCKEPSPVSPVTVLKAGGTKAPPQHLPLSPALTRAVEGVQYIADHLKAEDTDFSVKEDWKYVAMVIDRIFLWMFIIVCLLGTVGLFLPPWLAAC
Chain of A4B4 (P12392 21-495): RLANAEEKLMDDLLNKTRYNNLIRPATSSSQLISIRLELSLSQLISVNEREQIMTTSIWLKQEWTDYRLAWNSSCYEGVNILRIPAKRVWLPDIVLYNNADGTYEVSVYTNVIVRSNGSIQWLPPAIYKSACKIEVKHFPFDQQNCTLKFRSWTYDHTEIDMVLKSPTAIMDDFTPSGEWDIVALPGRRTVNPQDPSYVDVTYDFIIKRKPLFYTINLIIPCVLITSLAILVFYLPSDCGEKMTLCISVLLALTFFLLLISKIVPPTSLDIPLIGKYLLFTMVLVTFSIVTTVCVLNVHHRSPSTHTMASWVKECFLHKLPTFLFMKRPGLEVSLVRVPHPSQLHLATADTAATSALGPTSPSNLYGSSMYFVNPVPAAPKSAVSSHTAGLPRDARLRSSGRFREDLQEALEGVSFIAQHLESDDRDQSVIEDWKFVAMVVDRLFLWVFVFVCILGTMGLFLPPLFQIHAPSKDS
Text: as §1, §2

[12] = biological target: T5, NET (Homo sapiens, UniProt P23975)
T5 construct: NIMH PDSP
Text: as §1, §2

[13] = biological target: Alpha2B (Homo sapiens, UniProt P18089)
Text: as §1, §2

[14] = biological target: A2B4 (Rattus norvegicus, UniProt P12389+P12392)
Text: as §1, §2

[15] = biological target: 5-HT6 (Homo sapiens, UniProt P50406)
Text: as §1, §2

[16] = biological target: 5-ht5a (Homo sapiens, UniProt P47898)
Text: as §1, §2

[17] = biological target: T6, D2 (Homo sapiens, UniProt P14416)
T6 construct: NIMH PDSP
Text: as §1, §2

[18] = biological target: Sigma 2 (Rattus norvegicus, UniProt Q5U3Y7)
Chain of Sigma 2 (Q5U3Y7 whole entry): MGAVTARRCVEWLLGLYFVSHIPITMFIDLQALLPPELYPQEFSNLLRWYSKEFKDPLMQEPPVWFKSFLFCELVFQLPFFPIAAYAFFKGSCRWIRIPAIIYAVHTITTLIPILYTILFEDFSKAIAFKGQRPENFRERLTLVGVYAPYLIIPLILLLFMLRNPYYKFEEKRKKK
Text: as §1, §2

[19] = biological target: T7, KOR (Homo sapiens, UniProt P41145)
T7 construct: NIMH PDSP
T7 sequence (P41145 whole entry): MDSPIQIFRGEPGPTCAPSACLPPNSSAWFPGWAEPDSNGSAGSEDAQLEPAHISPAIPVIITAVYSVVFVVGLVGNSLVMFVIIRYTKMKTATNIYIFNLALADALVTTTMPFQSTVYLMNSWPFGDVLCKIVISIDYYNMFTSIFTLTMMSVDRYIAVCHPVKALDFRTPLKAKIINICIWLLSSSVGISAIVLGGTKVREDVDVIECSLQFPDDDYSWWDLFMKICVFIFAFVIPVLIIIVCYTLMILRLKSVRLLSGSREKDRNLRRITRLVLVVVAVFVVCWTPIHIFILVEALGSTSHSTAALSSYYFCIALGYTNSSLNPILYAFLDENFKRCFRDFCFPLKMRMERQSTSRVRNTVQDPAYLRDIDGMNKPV
Text: as §1, §2

[20] = biological target: T8, M4 (Homo sapiens, UniProt P08173)
T8 construct: NIMH PDSP
T8 sequence (P08173 whole entry): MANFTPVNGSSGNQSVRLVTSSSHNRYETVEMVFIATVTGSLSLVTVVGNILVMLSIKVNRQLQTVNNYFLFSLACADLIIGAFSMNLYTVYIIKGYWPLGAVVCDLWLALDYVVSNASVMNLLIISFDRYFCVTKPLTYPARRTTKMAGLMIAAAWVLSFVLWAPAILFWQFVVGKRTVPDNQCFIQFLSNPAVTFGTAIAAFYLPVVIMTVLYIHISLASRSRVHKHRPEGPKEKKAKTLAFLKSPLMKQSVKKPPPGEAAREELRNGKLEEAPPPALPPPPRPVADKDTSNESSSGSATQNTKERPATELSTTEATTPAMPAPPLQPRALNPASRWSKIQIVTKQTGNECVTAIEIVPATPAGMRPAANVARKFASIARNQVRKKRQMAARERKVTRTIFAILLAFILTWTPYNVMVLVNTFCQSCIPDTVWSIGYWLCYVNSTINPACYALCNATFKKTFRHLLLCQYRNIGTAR
Text: as §1, §2

[21] = biological target: A3B4 (Rattus norvegicus, UniProt P04757+P12392)
Chain of A3B4 (P04757 26-499): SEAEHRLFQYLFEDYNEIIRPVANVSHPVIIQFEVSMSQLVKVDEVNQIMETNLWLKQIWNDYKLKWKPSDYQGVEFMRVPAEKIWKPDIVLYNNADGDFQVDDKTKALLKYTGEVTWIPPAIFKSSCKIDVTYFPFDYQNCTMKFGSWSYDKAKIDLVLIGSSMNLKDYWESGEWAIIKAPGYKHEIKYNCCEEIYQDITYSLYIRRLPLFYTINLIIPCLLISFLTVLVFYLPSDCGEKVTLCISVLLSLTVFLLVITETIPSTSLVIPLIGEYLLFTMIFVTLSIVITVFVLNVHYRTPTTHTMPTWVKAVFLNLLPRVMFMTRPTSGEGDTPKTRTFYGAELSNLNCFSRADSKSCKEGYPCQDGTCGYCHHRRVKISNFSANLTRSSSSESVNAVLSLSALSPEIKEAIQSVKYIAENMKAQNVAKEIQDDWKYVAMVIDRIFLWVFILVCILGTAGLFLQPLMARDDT
Chain of A3B4 (P12392 21-495): as the sequence (P12392 21-495) above
Text: as §1, §2

[22] = biological target: Alpha2C (Homo sapiens, UniProt P18825)
Chain of Alpha2C (P18825 whole entry): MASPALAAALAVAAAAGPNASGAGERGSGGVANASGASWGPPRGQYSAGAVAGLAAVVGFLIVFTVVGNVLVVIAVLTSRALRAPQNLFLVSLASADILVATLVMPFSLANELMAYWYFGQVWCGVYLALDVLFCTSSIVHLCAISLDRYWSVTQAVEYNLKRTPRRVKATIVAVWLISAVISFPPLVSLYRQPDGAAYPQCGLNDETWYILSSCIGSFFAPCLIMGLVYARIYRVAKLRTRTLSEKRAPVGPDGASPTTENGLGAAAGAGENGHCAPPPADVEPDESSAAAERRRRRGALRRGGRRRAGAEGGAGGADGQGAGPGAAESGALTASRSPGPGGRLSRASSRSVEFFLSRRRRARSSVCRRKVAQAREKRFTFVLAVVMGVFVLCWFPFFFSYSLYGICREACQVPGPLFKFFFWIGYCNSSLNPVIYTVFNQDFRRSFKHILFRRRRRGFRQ
Text: as §1, §2

[23] = biological target: A3B2 (Rattus norvegicus, UniProt P04757+P12390)
Chain of A3B2 (P04757 26-499): as the sequence (P04757 26-499) above
Chain of A3B2 (P12390 25-500): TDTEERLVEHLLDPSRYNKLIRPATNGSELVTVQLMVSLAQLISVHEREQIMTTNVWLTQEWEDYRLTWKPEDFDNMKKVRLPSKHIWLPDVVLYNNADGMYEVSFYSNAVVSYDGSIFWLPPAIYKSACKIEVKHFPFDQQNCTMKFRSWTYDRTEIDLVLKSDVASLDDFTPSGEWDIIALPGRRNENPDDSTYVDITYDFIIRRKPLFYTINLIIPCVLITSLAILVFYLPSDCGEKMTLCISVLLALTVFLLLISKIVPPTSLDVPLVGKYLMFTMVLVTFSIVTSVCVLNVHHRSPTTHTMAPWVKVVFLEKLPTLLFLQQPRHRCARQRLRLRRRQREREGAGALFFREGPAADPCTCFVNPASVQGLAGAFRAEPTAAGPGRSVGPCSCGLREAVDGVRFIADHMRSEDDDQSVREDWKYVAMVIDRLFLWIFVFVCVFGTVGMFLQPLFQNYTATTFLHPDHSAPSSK
Text: as §1, §2

[24] = biological target: Alpha1D (Homo sapiens, UniProt P25100)
Text: as §1, §2

[25] = biological target: 5-HT1B (Homo sapiens, UniProt P28222)
Text: as §1, §2

[26] = biological target: 5-HT1D (Homo sapiens, UniProt P28221)
Text: as §1, §2

[27] = biological target: T9, SERT (Homo sapiens, UniProt P31645)
T9 construct: NIMH PDSP
Text: as §1, §2

[28] = biological target: T10, M1 (Homo sapiens, UniProt P11229)
T10 construct: NIMH PDSP
T10 sequence (P11229 whole entry): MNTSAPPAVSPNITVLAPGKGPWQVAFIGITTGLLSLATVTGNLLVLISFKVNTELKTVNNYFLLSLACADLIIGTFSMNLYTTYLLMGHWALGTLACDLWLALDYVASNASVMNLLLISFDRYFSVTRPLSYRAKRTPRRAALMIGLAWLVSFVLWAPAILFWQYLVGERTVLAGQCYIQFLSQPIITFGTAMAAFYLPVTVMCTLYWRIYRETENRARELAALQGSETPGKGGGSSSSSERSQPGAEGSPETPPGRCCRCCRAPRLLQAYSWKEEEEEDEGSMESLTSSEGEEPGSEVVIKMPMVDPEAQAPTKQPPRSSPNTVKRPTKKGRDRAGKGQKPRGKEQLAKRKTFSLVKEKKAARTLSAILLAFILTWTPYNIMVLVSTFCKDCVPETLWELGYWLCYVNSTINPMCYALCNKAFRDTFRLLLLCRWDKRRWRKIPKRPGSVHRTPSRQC
Text: as §1, §2

[29] = biological target: A4B2 (Rattus norvegicus, UniProt P09483+P12390)
Chain of A4B2 (P09483 31-630): as the sequence (P09483 31-630) above
Chain of A4B2 (P12390 25-500): as the sequence (P12390 25-500) above
Text: as §1, §2

[30] = biological target: T11, D4 (Homo sapiens, UniProt P21917)
T11 construct: NIMH PDSP
Text: as §1, §2

[31] = biological target: 5-ht1e (Homo sapiens, UniProt P28566)
Chain of 5-ht1e (P28566 whole entry, species assumed): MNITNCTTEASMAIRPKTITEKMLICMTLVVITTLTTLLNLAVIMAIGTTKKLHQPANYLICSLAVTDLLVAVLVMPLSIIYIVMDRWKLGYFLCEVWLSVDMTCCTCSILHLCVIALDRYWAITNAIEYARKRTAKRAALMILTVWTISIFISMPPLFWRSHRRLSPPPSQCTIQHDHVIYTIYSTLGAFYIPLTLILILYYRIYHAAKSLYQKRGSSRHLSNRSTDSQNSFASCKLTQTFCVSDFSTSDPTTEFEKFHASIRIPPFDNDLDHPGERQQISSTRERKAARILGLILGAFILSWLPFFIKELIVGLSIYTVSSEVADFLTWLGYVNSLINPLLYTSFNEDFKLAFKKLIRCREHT
Text: as §1, §2

[32] = system: Sigma 1
Text: as §1, §2

[33] = biological target: 5-HT2C (Homo sapiens, UniProt P28335)
Chain of 5-HT2C (P28335 33-458, species assumed): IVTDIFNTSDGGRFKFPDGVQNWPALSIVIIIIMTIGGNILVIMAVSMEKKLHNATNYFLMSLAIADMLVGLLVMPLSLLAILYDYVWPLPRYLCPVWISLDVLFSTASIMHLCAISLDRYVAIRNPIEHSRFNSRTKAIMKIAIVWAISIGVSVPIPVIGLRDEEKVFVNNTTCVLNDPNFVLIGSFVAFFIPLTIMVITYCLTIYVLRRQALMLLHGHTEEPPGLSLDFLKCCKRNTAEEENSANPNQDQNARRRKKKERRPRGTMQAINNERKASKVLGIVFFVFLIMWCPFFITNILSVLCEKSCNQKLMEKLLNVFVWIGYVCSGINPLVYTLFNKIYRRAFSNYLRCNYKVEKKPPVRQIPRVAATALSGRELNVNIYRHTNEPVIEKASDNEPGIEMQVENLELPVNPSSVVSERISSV
Text: as §1, §2

[34] = biological target: PBR (Rattus norvegicus, UniProt P16257)
Text: as §1, §2

[35] = biological target: 5-HT7 (Homo sapiens, UniProt P34969)
Text: as §1, §2

[36] = biological target: Alpha2A (Homo sapiens, UniProt P08913)
Text: as §1, §2

[37] = system: BZP Rat Brain Site
Text: as §1, §2

[38] = biological target: T12, Beta1 (Homo sapiens, UniProt P08588)
T12 construct: NIMH PDSP
Text: as §1, §2

[39] = biological target: T13, M3 (Homo sapiens, UniProt P20309)
T13 construct: NIMH PDSP
Text: as §1, §2

[40] = biological target: T14, Beta3 (Homo sapiens, UniProt P13945)
T14 construct: NIMH PDSP
Text: as §1, §2

In the case of `Cc1cc(/C=C2/SC(=S)NC2=O)c(C)n1-c1cccnc1` [optovin], the “Avg % inhibition (Alpha1A)” value [1] is reported as −5.4%, the “Avg % inhibition (DAT)” value [2] is reported as 1.5% and the “Avg % inhibition (5-HT2A)” value [3] is reported as −1.1%. The “Avg % inhibition (A2B2)” value [4] was −19.2%, the “Avg % inhibition (5-HT1A)” value [5] was 6.7% and the “Avg % inhibition (5-HT3)” value [6] was −1.7%. The “Avg % inhibition (MOR)” value [7] was −0.7%, the “Avg % inhibition (Alpha1B)” value [8] was 7.2% and the “Avg % inhibition (H2)” value [9] was 41.1%. The “Avg % inhibition (M5)” value [10] was 3.7%, the “Avg % inhibition (A4B4)” value [11] was −8.8% and the “Avg % inhibition (NET)” value [12] was −1.3%. For the same molecule, the “Avg % inhibition (Alpha2B)” value [13] was 8.9%, the “Avg % inhibition (A2B4)” value [14] was −7.8% and the “Avg % inhibition (5-HT6)” value [15] was −16.5%. The “Avg % inhibition (5-ht5a)” value [16] was −17.7%, the “Avg % inhibition (D2)” value [17] was −6.8% and the “Avg % inhibition (Sigma 2)” value [18] was 16.0%. The “Avg % inhibition (KOR)” value [19] was 10.9%, the “Avg % inhibition (M4)” value [20] was 3.5% and the “Avg % inhibition (A3B4)” value [21] was −12.5%. The “Avg % inhibition (Alpha2C)” value [22] was 3.3%, the “Avg % inhibition (A3B2)” value [23] was −5.6% and the “Avg % inhibition (Alpha1D)” value [24] was 30.4%. The “Avg % inhibition (5-HT1B)” value [25] was 11.8%, the “Avg % inhibition (5-HT1D)” value [26] was 12.9% and the “Avg % inhibition (SERT)” value [27] was 75.8%. For the same molecule, the “Avg % inhibition (M1)” value [28] was 32.9% and 16.9%, the “Avg % inhibition (A4B2)” value [29] was −26.8% and the “Avg % inhibition (A4B2**)” value [29] was −29.1%. The “Avg % inhibition (D4)” value [30] was 0.2%, the “Avg % inhibition (5-ht1e)” value [31] was −21.5% and the “Avg % inhibition (Sigma 1)” value [32] was −13.7%. For the same molecule, the “Avg % inhibition (5-HT2C)” value [33] was 7.0%, the “Avg % inhibition (PBR)” value [34] was −11.3% and the “Avg % inhibition (5-HT7)” value [35] was −0.8%. For the same molecule, the “Avg % inhibition (Alpha2A)” value [36] was 40.5%, the “Avg % inhibition (BZP Rat Brain Site)” value [37] was 5.3% and the “Avg % inhibition (Beta1)” value [38] was 19.4%. For the same molecule, the “Avg % inhibition (M3)” value [39] was 9.1% and the “Avg % inhibition (Beta3)” value [40] was 20.2%.

From patent publication US9486447B2, “Compositions and methods for controlling neuronal excitation” (The General Hospital Corporation, priority 2011, dated 2016)
